The experiment deals with T1, Tyrosine-protein kinase JAK3 (Homo sapiens, UniProt P52333).
T1 sequence (P52333 whole entry): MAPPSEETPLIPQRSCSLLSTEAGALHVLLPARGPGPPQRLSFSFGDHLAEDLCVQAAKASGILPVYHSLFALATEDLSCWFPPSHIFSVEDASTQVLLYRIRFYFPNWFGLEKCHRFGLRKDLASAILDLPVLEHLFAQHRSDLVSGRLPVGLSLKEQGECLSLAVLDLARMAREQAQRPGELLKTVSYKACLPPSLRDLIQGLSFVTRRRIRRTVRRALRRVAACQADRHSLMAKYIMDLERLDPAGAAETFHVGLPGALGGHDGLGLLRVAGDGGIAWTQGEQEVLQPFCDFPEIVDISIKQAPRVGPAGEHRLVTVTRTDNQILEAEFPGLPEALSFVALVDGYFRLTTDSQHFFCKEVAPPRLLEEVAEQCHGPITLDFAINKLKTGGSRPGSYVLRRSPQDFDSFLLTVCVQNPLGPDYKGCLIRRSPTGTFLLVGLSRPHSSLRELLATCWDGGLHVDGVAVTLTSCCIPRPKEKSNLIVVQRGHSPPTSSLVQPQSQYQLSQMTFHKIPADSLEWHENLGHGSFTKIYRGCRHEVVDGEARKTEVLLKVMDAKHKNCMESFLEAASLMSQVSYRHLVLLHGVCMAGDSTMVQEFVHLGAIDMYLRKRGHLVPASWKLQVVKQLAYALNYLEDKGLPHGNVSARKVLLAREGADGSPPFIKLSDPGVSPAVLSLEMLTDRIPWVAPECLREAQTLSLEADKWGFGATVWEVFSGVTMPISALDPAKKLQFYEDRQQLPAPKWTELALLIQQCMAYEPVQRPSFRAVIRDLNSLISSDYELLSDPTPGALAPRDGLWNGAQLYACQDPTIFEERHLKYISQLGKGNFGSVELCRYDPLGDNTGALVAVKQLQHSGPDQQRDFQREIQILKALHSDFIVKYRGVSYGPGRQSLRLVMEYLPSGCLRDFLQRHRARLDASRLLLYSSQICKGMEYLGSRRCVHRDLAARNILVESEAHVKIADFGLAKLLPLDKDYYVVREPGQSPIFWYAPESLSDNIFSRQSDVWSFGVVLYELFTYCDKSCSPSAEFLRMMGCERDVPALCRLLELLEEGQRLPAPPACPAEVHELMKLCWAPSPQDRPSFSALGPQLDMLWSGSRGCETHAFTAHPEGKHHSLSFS
Put plainly: Inhibition of JAK3 expressed in Sf21 cells.
`O=C1NCc2c1c1c3cc(Br)ccc3n3c1c1c2c2ccccc2n1CC(CO)C3` (stereo not given): inhibition was half-maximal at 23.5 nM (IC50).
As for `O=C1NCc2c1c1c3ccccc3n3c1c1c2c2ccccc2n1CC(O)(CO)C3` (stereo not given), the figure is 27 nM; as for `O=C1NCc2c1c1c3ccccc3n3c1c1c2c2ccccc2n1CC(CO)C3` (stereo not given), 17.5 nM; as for `O=C1NCc2c1c1c3ccccc3n3c1c1c2c2ccccc2n1CC(O)C3` (stereo not given), 142 nM.
Molecule `O=Cc1ccc2c(c1)c1c3c(c4c5cc(Br)ccc5n5c4c1n2CC(CO)C5)C(=O)NC3` (stereo not given) displayed an IC50 of 15 nM.
`O=C1NCc2c1c1c3cc(/C=C/n4ccnc4)ccc3n3c1c1c2c2ccccc2n1CC(CO)C3` (stereo not given): the IC50 is 109 nM.
`O=C1NCc2c1c1c3cc(/C=C/Cn4ccnc4)ccc3n3c1c1c2c2ccccc2n1CC(CO)C3` (stereo not given) showed an IC50 of 11 nM.
Molecule `O=C1NCc2c1c1c3cc(CO)ccc3n3c1c1c2c2cc(CO)ccc2n1CC(CO)C3` (stereo not given) returned an IC50 of 14 nM.
As for `CN(C)CCCNC(=O)/C=C/c1ccc2c(c1)c1c3c(c4c5ccccc5n5c4c1n2CC(CO)C5)CNC3=O` (stereo not given), the figure is 237 nM; as for `O=C1NCc2c1c1c3ccccc3n3c1c1c2c2ccccc2n1CC(CO)(CO)C3`, 13.5 nM; as for `O=C1NCc2c1c1c3cc(/C=C/c4ccccn4)ccc3n3c1c1c2c2ccccc2n1CC(CO)C3` (stereo not given), 354 nM.
To `O=C1NCc2c1c1c3cc(CN4CCOCC4)ccc3n3c1c1c2c2cc(CN4CCOCC4)ccc2n1CC(CO)C3` (stereo not given) belongs greater than 5000 nM.
`CC(C)OCc1ccc2c(c1)c1c3c(c4c5ccccc5n5c4c1n2CC(CO)C5)C(=O)NC3` (stereo not given): half-maximal inhibition (IC50) was put at 80 nM.
On to `O=C1NCc2c1c1c3ccccc3n3c1c1c2c2ccccc2n1CC(=C(CO)CO)C3`, for which it took 36 nM to reach half-maximal inhibition (IC50).
`CN(C)Cc1ccc2c(c1)c1c3c(c4c5ccccc5n5c4c1n2CC(CO)C5)C(=O)NC3` (stereo not given) yielded an IC50 of 250 nM.

Broadly, the IC50 is the concentration that inhibits the measured activity by half. Higher therefore signals weaker potency.

Source of the values: ChEMBL document CHEMBL1146279 (Bioorg Med Chem Lett, 2007).
